The text below walks through data of ChEMBL document CHEMBL5046289, “Targeting the S2 Subsite Enables the Structure-Based Discovery of Novel Highly Selective Factor XIa Inhibitors” (J Med Chem, 2022).

Calls of active or inactive are those of the source. No cut-off for these calls is given here.

Test [1] is filed under the species Homo sapiens. Briefly: Selectivity index, ratio of IC50 for coagulation factor Xa (unknown origin) to IC50 for coagulation factor XIa (unknown origin).
The target in test [2] is T1, Prothrombin (Homo sapiens, UniProt P00734). Briefly: Inhibition of thrombin (unknown origin) assessed as chromogenic substrate using CS-10(38) as substrate incubated for 1 hr by spectrophotometer based microplate reader method.
The species named for test [3] is Homo sapiens. Briefly: Selectivity index, ratio of IC50 for coagulation factor VIIa (unknown origin) to IC50 for coagulation factor XIa (unknown origin).
The target in test [4] is T1, Prothrombin. Briefly: Inhibition of thrombin (unknown origin) assessed as chromogenic substrate using CS-10(38) as substrate at 1 mM incubated for 1 hr by spectrophotometer based microplate reader method.
Test [5] concerns the target T2, Coagulation factor XI (Homo sapiens, UniProt P03951). The conditions noted are these: dose 50.0 nM, time 1.0 hrs.
Test [6] concerns the target Plasma kallikrein (Homo sapiens, UniProt P03952). Briefly: Inhibition of plasma kallikrein (unknown origin) assessed as chromogenic substrate hydrolysis using CS-31(02) as substrate incubated for 1 hr by spectrophotometer based microplate reader method.
The target of test [7] is Coagulation factor IX (Homo sapiens) (UniProt P00740). Briefly: Inhibition of coagulation factor IXa (unknown origin) assessed as chromogenic substrate using ADG299 as substrate at 1 mM incubated for 1 hr by spectrophotometer based microplate reader method.
Test [8] deals with T2, Coagulation factor XI. Briefly: Inhibition of coagulation factor XIa (unknown origin) assessed as chromogenic substrate hydrolysis using CS-21(66) as substrate incubated for 1 hr by spectrophotometer based microplate reader method.
For test [9], the target named is Coagulation factor X (Homo sapiens, UniProt P00742). Briefly: Inhibition of coagulation factor Xa (unknown origin) assessed as chromogenic substrate using CS-11(22) as substrate incubated for 1 hr by spectrophotometer based microplate reader method.
For test [10], the species on record is Homo sapiens. Briefly: Selectivity index, ratio of IC50 for plasma kallikrein (unknown origin) to IC50 for coagulation factor XIa (unknown origin).
In test [11] the target is T3, Coagulation factor VII (Homo sapiens) (UniProt P08709).
T3 sequence (whole entry): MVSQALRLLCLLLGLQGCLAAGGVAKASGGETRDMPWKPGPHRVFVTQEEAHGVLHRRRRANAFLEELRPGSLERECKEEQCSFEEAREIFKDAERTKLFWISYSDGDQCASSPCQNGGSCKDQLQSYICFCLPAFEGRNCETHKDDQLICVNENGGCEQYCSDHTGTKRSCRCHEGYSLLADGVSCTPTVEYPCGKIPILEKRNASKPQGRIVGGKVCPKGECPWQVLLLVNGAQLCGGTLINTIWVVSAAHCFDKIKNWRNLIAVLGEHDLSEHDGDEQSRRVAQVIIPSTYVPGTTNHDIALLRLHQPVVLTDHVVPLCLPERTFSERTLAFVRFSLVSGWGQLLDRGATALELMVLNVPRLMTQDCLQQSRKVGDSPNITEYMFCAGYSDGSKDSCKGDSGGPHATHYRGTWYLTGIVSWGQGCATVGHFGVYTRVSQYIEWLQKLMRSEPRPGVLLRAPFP
Briefly: Inhibition of coagulation factor VIIa (unknown origin) assessed as chromogenic substrate using chromozyme t-PA as substrate at 1 mM incubated for 1 hr by spectrophotometer based microplate reader method.

The species entered for test [12] is Homo sapiens. Briefly: Selectivity index, ratio of IC50 for thrombin (unknown origin) to IC50 for coagulation factor XIa (unknown origin).
Test [13] addresses T4, Coagulation factor XII (Homo sapiens) (UniProt P00748).
T4 sequence (whole entry): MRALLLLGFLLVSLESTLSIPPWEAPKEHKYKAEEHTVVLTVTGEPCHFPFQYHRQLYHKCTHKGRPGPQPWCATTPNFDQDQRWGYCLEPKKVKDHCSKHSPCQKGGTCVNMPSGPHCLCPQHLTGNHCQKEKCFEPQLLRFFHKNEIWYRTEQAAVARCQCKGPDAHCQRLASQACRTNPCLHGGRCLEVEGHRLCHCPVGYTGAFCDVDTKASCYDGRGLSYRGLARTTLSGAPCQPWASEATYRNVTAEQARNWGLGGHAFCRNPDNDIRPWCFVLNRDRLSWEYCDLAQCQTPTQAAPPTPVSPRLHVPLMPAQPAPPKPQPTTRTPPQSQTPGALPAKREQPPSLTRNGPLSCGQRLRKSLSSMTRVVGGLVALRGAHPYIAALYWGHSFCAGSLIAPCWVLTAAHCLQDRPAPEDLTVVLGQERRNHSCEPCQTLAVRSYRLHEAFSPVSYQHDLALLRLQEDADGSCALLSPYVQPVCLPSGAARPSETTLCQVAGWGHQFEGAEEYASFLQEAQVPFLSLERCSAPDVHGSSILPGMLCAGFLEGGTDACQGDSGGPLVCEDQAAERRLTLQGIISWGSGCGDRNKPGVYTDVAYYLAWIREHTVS
Briefly: Inhibition of coagulation factor XIIa (unknown origin) assessed as chromogenic substrate using TH5253 as substrate at 1 mM incubated for 1 hr by spectrophotometer based microplate reader method.

Test [14] concerns the target Serine protease 1 (Homo sapiens) (UniProt P07477). Briefly: Inhibition of trypsin (unknown origin) assessed as chromogenic substrate using CS-11(22) as substrate at 1 mM incubated for 1 hr by spectrophotometer based microplate reader method.
The species named for test [15] is Homo sapiens. Briefly: Selectivity index, ratio of IC50 for coagulation factor IXa (unknown origin) to IC50 for coagulation factor XIa (unknown origin).
The species named for test [16] is Homo sapiens. Briefly: Selectivity index, ratio of IC50 for trypsin (unknown origin) to IC50 for coagulation factor XIa (unknown origin).
For test [17], the species on record is Homo sapiens. Briefly: Selectivity index, ratio of IC50 for coagulation factor XIIa (unknown origin) to IC50 for coagulation factor XIa (unknown origin).

T2 sequence (P03951 19-387 limits assumed): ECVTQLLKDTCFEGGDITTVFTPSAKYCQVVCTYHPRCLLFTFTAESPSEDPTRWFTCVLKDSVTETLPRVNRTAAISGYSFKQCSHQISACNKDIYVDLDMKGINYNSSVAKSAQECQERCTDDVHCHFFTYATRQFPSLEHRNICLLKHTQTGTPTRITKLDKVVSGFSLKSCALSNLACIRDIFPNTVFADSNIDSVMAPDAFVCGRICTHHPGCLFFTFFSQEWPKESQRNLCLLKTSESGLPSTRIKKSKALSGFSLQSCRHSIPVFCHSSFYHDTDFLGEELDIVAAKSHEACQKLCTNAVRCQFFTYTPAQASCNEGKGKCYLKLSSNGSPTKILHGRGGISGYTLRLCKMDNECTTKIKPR
T2 sequence (P03951 388-625 limits assumed): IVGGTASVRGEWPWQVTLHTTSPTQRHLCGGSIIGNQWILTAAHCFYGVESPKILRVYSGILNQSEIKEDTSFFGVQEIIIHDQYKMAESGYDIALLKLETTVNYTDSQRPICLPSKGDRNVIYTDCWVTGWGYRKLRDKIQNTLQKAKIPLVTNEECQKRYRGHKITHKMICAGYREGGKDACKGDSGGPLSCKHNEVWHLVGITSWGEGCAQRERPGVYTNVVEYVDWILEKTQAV
Chain of Coagulation factor IX (Homo sapiens) (P00740 47-191 limits assumed): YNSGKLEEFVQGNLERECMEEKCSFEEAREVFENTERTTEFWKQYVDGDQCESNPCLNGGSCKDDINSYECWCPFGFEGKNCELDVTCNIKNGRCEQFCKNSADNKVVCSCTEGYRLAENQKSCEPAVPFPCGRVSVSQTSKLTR
Chain of Coagulation factor IX (Homo sapiens) (P00740 227-461 limits assumed): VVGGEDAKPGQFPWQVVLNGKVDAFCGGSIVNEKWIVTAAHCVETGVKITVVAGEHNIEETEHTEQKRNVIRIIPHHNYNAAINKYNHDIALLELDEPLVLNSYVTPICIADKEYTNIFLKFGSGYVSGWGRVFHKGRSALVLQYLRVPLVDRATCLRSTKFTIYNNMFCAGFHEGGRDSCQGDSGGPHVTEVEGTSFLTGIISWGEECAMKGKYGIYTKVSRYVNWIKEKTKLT
Chain of Plasma kallikrein (P03952 20-390 limits assumed): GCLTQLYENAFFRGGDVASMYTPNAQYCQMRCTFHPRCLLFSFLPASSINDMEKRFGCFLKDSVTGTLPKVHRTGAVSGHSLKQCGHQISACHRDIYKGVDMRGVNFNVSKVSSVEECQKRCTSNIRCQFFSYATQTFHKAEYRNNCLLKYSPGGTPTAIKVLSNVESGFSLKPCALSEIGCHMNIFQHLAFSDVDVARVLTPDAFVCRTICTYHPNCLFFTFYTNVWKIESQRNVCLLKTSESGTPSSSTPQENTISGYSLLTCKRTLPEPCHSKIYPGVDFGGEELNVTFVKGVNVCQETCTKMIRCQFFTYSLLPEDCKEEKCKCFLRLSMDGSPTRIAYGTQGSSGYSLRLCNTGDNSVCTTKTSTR
Chain of Plasma kallikrein (P03952 391-638 limits assumed): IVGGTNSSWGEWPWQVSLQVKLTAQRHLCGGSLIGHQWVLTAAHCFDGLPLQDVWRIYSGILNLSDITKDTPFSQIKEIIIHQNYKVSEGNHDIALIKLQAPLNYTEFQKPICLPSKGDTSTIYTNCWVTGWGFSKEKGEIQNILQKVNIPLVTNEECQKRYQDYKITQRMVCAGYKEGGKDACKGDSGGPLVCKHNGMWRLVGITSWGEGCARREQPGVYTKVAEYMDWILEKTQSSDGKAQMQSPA
Chain of Serine protease 1 (Homo sapiens) (P07477 whole entry): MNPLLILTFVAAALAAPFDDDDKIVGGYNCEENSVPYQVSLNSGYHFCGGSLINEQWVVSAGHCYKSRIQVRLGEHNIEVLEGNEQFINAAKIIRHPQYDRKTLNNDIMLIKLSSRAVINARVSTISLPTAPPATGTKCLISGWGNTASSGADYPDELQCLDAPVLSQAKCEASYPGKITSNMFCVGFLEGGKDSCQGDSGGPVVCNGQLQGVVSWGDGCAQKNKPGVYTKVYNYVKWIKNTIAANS
Chain of Coagulation factor X (P00742 41-179 limits assumed): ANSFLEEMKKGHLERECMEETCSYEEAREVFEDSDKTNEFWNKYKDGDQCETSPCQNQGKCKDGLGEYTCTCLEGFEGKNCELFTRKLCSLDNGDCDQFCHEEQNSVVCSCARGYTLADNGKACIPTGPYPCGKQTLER
Chain of Coagulation factor X (P00742 235-488 limits assumed): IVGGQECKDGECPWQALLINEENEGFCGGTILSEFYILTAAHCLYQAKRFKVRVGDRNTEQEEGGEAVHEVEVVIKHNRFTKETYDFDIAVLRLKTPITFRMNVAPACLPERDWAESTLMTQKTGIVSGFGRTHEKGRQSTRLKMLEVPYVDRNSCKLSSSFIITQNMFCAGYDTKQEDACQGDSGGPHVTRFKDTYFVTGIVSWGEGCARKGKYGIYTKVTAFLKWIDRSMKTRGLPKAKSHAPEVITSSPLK

`O=C(/C=C/c1cc(Cl)ccc1-n1cnnn1)N[C@@H](CC(=O)N1CCSCC1)C(=O)Nc1ccc(C(=O)O)cc1`: the Ratio IC50 is greater than 5000 in test [1]; greater than 5000 in [3]; 756 in test [10]; greater than 5000 in test [12]; greater than 5000 in test [15]; greater than 5000 in test [16]. The Ratio IC50 in test [17] is greater than 5000. The inhibition result in test [2], in [4], in test [7], in test [11], in [13] and in test [14] was “inactive” in each case. The compound also registered an inhibition in test [5] of 52.3%. Besides, the IC50 in test [6] is 14 µM; in test [8] it was 0.0185 µM; in [9], 980 µM.
